Values quoted from earlier work, collected in US20250108061A1, “METHOD FOR TREATING ENDOMETRIOSIS AND PROVIDING EFFECTIVE CONTRACEPTION” (CHEMO RESEARCH, S.L., priority 2021, published 2025).

Assays:
women [1] = tested on: women
women [2] = conditions: at high dosages (5-15 mg/daily)

Question: For `C[C@]12CCC3=C4CCC(=O)C=C4CC[C@H]3[C@@H]1CC[C@@]2(O)CC#N` [DNG, Dienogest], which “ovulation inhibition / ovarian activity” value (women [1]; 2 mg daily) is on record?
Answer: provides ovulation inhibition, but ovarian activity is not completely suppressed

Question: For `C#C[C@]1(OC(C)=O)CC[C@H]2[C@@H]3CCC4=CC(=O)CC[C@@H]4[C@H]3CC[C@@]21C` [NETA, norethisterone acetate], which androgenic side effects (women [2]) is on record?
Answer: can produce androgenic side effects, such as acne, hirsutism, weight gain and voice changes of slight severity in some women

Question: And the “dosage necessary for ovulation inhibition” value (women [1]; given continuously over 28 days)?
Answer: 0.35 mg/daily
